Data on two compounds can be found in US12239623B2, “Sleep-improving compositions and methods of use” (priority 2023, dated 2025).

Format in all cases: in vivo
For assay [1], the system named is male BALB/c mice. The experiment in a line: EEG amplitude and frequency in caffeine-treated mice (Example 1). The note with it: caffeine 7.5 mg/kg, compositions in combination with caffeine. The procedure:
(§1) Five male BALB/c mice per treatment arm (age: 8 weeks; weight: […]) were housed in a controlled environment with a 12:12-h light-dark cycle at 22° C. and were provided with mice chow and water ad libitum. The mice were fasted for 24 hours prior to the study, which was conducted between 1 pm and 5 pm and under the National Institutes of Health's Guidelines for the Care and Use of Laboratory Animals and approved by the Ethics Committee of the Medipol University. The mice were divided into eight groups and anesthetized with urethane (1.25 g/kg, i.p.; Sigma U2500) and carefully placed in a stereotaxic frame. Rectal temperatures were maintained between 36.5° C. and 37.0° C. using a feedback-controlled-heating system (507221F, Harvard Apparatus, ABD). Lidocaine (2.0%) was applied on the incision area to prevent any occurrence of pain. A midline incision was made on the skin along the sagittal suture of the skull. A part of the cranium overlying the left parietal cortex was removed using a dental drill. […]
(§2) After the administration, the mice were placed in individual cages and subjected to measurements of sleep latency and duration. Brain electrical activity were monitored and recorded for a total of 2 hours. […]

The next assay relates to OVX female mice. The experiment in a line: Serum melatonin by ELISA in OVX female mice (Example 3). The note with it: FIG. 3, saline control about 11 pg/ml, caffeine 7.5 mg/kg, composition given with caffeine. The procedure:
(§3) Both OVX female mice and male mice were divided into three groups: group treated with saline, group treated with 7.5 mg/kg caffeine, and group treated with a combination of 7.5 mg/kg caffeine and the magnesium glycinate, L-theanine, GABA, SAMe and propyl gallate composition. […] Levels of serum melatonin were measured by ELISA kits.

Another assay concerns GluN2A. Briefly: Western blot of brain GluN2A in caffeine-treated mice (Example 1). The following applies: FIG. 1F, male BALB/c mice brain, reduced from 100%, caffeine 7.5 mg/kg i.p., combos given together with caffeine, after two hours. The procedure: as §1, with “drill. Ag—AgCl ball electrodes were placed on the left somatomotor cortex (1 mm anterior/1.5 mm lateral from bregma; 3 mm posterior/1.5 mm lateral from bregma) and the reference electrode was attached to the left foot for an ECoG recording. Group 1 were treated with saline. To induce sleep disturbance, 7.5 mg/kg caffeine was injected intraperitoneally at minute 15 of recordings to groups 2-8.” for “drill.”

A further assay has as its system male mice. Briefly: Serum melatonin by ELISA in male mice (Example 3). The following applies: FIG. 3, saline control about 33 pg/ml, caffeine 7.5 mg/kg, composition given with caffeine. On the procedure: as §3
For orientation: In an ELISA, binding on a coated surface is turned into a signal by an enzyme label.

In a further assay the test system is GABAB receptor 1. Briefly: Western blot of brain GABAB receptor 1 in caffeine-treated mice (Example 1). The note with it: FIG. 1B, male BALB/c mice brain, reduced from 100%, caffeine 7.5 mg/kg i.p., combos given together with caffeine, after two hours. The procedure: as §1, with “drill. Ag—AgCl ball electrodes were placed on the left somatomotor cortex (1 mm anterior/1.5 mm lateral from bregma; 3 mm posterior/1.5 mm lateral from bregma) and the reference electrode was attached to the left foot for an ECoG recording. Group 1 were treated with saline. To induce sleep disturbance, 7.5 mg/kg caffeine was injected intraperitoneally at minute 15 of recordings to groups 2-8.” for “drill.”
A general note: A western blot detects proteins with antibodies after separation by electrophoresis.

In another assay the test system is GABAB receptor 2. Briefly: Western blot of brain GABAB receptor 2 in caffeine-treated mice (Example 1). The following applies: FIG. 1C, male BALB/c mice brain, reduced from 100%, caffeine 7.5 mg/kg i.p., combos given together with caffeine, after two hours. On the procedure: as §1, with “drill. Ag—AgCl ball electrodes were placed on the left somatomotor cortex (1 mm anterior/1.5 mm lateral from bregma; 3 mm posterior/1.5 mm lateral from bregma) and the reference electrode was attached to the left foot for an ECoG recording. Group 1 were treated with saline. To induce sleep disturbance, 7.5 mg/kg caffeine was injected intraperitoneally at minute 15 of recordings to groups 2-8.” for “drill.”

Another assay deals with GluN1. Briefly: Western blot of brain GluN1 in caffeine-treated mice (Example 1). The following applies: FIG. 1E, male BALB/c mice brain, reduced from 100%, caffeine 7.5 mg/kg i.p., combos given together with caffeine, after two hours. The procedure: as §1, with “drill. Ag—AgCl ball electrodes were placed on the left somatomotor cortex (1 mm anterior/1.5 mm lateral from bregma; 3 mm posterior/1.5 mm lateral from bregma) and the reference electrode was attached to the left foot for an ECoG recording. Group 1 were treated with saline. To induce sleep disturbance, 7.5 mg/kg caffeine was injected intraperitoneally at minute 15 of recordings to groups 2-8.” for “drill.”

The test system of a further assay is 5-HT1A. The experiment in a line: Western blot of brain 5-HT1A in caffeine-treated mice (Example 1). The note with it: FIG. 1G, male BALB/c mice brain, reduced from 100%, caffeine 7.5 mg/kg i.p., combos given together with caffeine, after two hours. The procedure:
as §1, with “drill. Ag—AgCl ball electrodes were placed on the left somatomotor cortex (1 mm anterior/1.5 mm lateral from bregma; 3 mm posterior/1.5 mm lateral from bregma) and the reference electrode was attached to the left foot for an ECoG recording. Group 1 were treated with saline. To induce sleep disturbance, 7.5 mg/kg caffeine was injected intraperitoneally at minute 15 of recordings to groups 2-8.” for “drill.”

For the next assay, the system named is GABAA receptor 2. Briefly: Western blot of brain GABAA receptor 2 in caffeine-treated mice (Example 1). The following applies: FIG. 1A, male BALB/c mice brain, reduced from 100%, caffeine 7.5 mg/kg i.p., combos given together with caffeine, after two hours. On the procedure:
as §1, with “drill. Ag—AgCl ball electrodes were placed on the left somatomotor cortex (1 mm anterior/1.5 mm lateral from bregma; 3 mm posterior/1.5 mm lateral from bregma) and the reference electrode was attached to the left foot for an ECoG recording. Group 1 were treated with saline. To induce sleep disturbance, 7.5 mg/kg caffeine was injected intraperitoneally at minute 15 of recordings to groups 2-8.” for “drill.”

A further assay has as its system GluA1. Briefly: Western blot of brain GluA1 in caffeine-treated mice (Example 1). The following applies: FIG. 1D, male BALB/c mice brain, reduced from 100%, caffeine 7.5 mg/kg i.p., combos given together with caffeine, after two hours. On the procedure: as §1, with “drill. Ag—AgCl ball electrodes were placed on the left somatomotor cortex (1 mm anterior/1.5 mm lateral from bregma; 3 mm posterior/1.5 mm lateral from bregma) and the reference electrode was attached to the left foot for an ECoG recording. Group 1 were treated with saline. To induce sleep disturbance, 7.5 mg/kg caffeine was injected intraperitoneally at minute 15 of recordings to groups 2-8.” for “drill.”

In assay [2] the test system is male BALB/c mice. The experiment in a line: Sleep duration and sleep latency in mice (Example 1). The following applies: pentobarbital 42 mg/kg, combos together with caffeine. On the procedure:
as §1, §2

For `Cn1c(=O)c2c(ncn2C)n(C)c1=O` [caffeine], the EEG amplitude result in the assay with male BALB/c mice [1] (FIG. 1H, from about 100 mV, within 75 minutes) is reported as “about 70 mV”. The EEG frequency result in the assay on male BALB/c mice [1] (FIG. 1I, from about 100 spikes, in 90 minutes) was “about 200 spikes”. For the same compound, the melatonin level entry is “about 8 pg/ml” in the assay on OVX female mice and “about 12 pg/ml” in the assay on male mice. In addition, the “percentage of GluN2A receptor” value in the assay with GluN2A is listed as “about 20%”. The “percentage of GABAB receptor 1” value with GABAB receptor 1 is recorded as “about 18%”. The “percentage of GABAB receptor 2” value with GABAB receptor 2 was “about 28%”. The “percentage of GluN1 receptor” value in the assay with GluN1 is given as “about 35%”. For the same compound, the “percentage of 5-HT1A receptor” value in the assay on 5-HT1A was “about 20%”. Further, the “percentage of GABAA receptor 2” value in the assay on GABAA receptor 2 is given as “about 25%”. For the same compound, the “percentage of GluA1 receptor” value with GluA1 is on record as “about 26%”.

With `CCCC(C)C1(CC)C(=O)NC(=O)NC1=O` (stereo not shown) [pentobarbital], the sleep duration result with male BALB/c mice [2] (FIG. 1J) was “about 50 minutes”. Also, the sleep latency result in the assay on male BALB/c mice [2] (FIG. 1K) is “about 2 minutes”.
